According to US12252524B2, “GIP/GLP1 co-agonist compounds” (Eli Lilly and Company, priority 2018, dated 2025):
Numbered stars: 1 amine (or outer) side, 2 acyl side, 3 side chain; on linkers, the order of the positions; unused ones are H or OH. Square brackets hold non-standard residues; d marks the D form. Side chains are listed from the residue outwards. Peptide text beside a SMILES is read from it. * marks the point of attachment. C20 diacid = O=C(O)CCCCCCCCCCCCCCCCCCC(=O)*; γGlu = O=C(O)[C@H](CCC(=O)[*:2])N[*:1]; αMeL = CC(C)C[C@](C)(N)C(=O)O; AEEA = NCCOCCOCC(=O)O; Aib = CC(C)(N)C(=O)O

Tests used:
[1] = molecular target: T1, human Gcg receptor (Homo sapiens, UniProt P47871); experiment: [125I]-Glucagon binding (SPA), human Gcg receptor; conditions: read-out: hGLcgR Ki, nM (SEM, n)
T1 construct: expressed in transfected cells; crude membranes
In short: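 Cell pellets were lysed in hypotonic Tris buffer, pH 7.5, homogenized, and spun at low then high speed to give crude membranes. Ki was derived from the fitted IC50.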

[2] = molecular target: T2, human GIP receptor (Homo sapiens, UniProt P48546); experiment: [125I]-GIP binding (SPA), human GIP receptor; conditions: read-out: hGIPR Ki, nM (SEM, n)
T2 construct: expressed in transfected cells; crude membranes
T2 sequence (P48546 22-466): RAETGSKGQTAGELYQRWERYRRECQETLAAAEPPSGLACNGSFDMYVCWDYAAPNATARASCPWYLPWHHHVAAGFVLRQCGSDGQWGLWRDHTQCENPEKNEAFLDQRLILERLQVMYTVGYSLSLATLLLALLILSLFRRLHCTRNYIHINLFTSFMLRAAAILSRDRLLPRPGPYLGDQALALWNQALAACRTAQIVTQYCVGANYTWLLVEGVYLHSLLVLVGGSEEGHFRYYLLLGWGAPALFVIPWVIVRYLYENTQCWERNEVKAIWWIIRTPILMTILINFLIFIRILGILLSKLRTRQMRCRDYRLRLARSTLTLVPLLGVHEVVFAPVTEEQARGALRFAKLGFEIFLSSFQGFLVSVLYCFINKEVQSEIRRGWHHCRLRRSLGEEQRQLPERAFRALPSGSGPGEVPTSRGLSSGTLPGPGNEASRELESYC

[3] = molecular target: human GLP-1 receptor (GLP-1R) (Homo sapiens, UniProt P43220); experiment: cAMP pharmacological functional assay in presence of casein, hGLP-1R; type: cell-based; conditions: HEK293 cells expressing hGLP-1R, 0.1% Casein, geometric mean; read-out: hGLP1R cAMP Rel EC50 nM (SEM, n)
[4] = molecular target: T3, gastric inhibitory peptide receptor (GIPR) (Homo sapiens, UniProt P48546); experiment: cAMP pharmacological functional assay in presence of casein, hGIPR; type: cell-based; conditions: HEK293 cells expressing hGIPR, 0.1% Casein, geometric mean; read-out: hGIPR cAMP Rel EC50 nM (SEM, n)
T3 sequence (P48546 22-466): T2 sequence (P48546 22-466)

[5] = molecular target: human GLP-1R (Homo sapiens, UniProt P43220); experiment: [125I]-GLP-1 binding (SPA), human GLP-1 receptor; set-up: expressed in transfected cells; crude membranes; conditions: read-out: hGLP1R Ki, (nM) (SEM, n)
In short: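 Assay buffer: HEPES 25 mM, pH 7.4, CaCl2 2.5 mM, MgCl2 1 mM, with EDTA-free protease inhibitors. Receptor came from crude cell membranes prepared by homogenization and centrifugation at 4° C. IC50s came from four-parameter fits (maximum, minimum, IC50, Hill slope) and were expressed as Ki geometric means with SEM.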

human GLP-1R, sequence (P43220 24-463): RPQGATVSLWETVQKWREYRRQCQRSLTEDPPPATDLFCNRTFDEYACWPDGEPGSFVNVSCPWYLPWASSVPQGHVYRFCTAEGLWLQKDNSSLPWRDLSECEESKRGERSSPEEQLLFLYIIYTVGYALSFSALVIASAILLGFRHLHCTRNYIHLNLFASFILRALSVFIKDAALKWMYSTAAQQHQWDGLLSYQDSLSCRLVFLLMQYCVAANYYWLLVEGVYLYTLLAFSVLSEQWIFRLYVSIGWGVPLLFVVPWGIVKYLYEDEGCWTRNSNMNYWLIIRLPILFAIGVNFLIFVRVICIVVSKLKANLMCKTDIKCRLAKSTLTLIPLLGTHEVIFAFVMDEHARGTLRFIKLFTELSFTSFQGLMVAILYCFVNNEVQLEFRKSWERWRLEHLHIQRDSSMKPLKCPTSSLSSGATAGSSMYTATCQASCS
human GLP-1 receptor (GLP-1R), sequence (P43220 24-463): as above
T1 sequence (P47871 26-477): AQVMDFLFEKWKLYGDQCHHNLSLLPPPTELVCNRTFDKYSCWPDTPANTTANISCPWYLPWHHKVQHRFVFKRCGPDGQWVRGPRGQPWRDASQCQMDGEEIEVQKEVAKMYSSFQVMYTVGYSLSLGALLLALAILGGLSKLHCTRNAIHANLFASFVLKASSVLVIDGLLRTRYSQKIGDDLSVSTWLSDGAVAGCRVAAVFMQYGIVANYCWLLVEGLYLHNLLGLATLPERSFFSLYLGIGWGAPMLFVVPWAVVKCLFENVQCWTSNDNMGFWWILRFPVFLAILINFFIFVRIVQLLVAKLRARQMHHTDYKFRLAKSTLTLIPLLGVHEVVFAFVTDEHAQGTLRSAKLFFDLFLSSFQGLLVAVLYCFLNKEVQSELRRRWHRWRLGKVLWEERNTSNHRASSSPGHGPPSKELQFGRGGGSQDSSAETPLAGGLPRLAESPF

Compound	Ki [1]	Ki [2]	EC50 [3]	EC50 [4]	Ki [5]
CC[C@H](C)[C@H](NC(=O)[C@H](CC(C)C)NC(=O)[C@H](Cc1ccc(O)cc1)NC(=O)[C@H](CCC(=O)O)NC(=O)[C@@H](NC(=O)[C@H](Cc1ccccc1)NC(=O)[C@H](C)NC(=O)C(C)(C)NC(=O)[C@H](CCC(N)=O)NC(=O)[C@H](C)NC(=O)[C@H](CCCCNC(=O)COCCOCCNC(=O)COCCOCCNC(=O)CC[C@H](NC(=O)CCCCCCCCCCCCCCCCCCC(=O)O)C(=O)O)NC(=O)[C@H](CCCCN)NC(=O)[C@H](CC(=O)O)NC(=O)[C@H](CC(C)C)NC(=O)[C@H](CC(C)C)NC(=O)[C@@H](NC(=O)[C@H](CO)NC(=O)[C@H](Cc1ccc(O)cc1)NC(=O)[C@H](CC(=O)O)NC(=O)[C@H](CO)NC(=O)[C@@H](NC(=O)[C@H](Cc1ccccc1)NC(=O)[C@@H](NC(=O)CNC(=O)[C@H](CCC(=O)O)NC(=O)C(C)(C)NC(=O)[C@@H](N)Cc1ccc(O)cc1)[C@@H](C)O)[C@@H](C)O)[C@@H](C)CC)[C@@H](C)CC)C(=O)N[C@@H](CCC(=O)O)C(=O)NCC(=O)NCC(N)=O [Example 51] (H-Y[Aib]EGTFTSDYSILLDKK([AEEA-AEEA-γGlu-C20 diacid])AQ[Aib]AFIEYLIEGG-NH2)	195 nM	0.062 nM	0.153 nM	0.096 nM	5.62 nM
CC[C@H](C)[C@H](NC(=O)[C@H](CC(C)C)NC(=O)[C@H](Cc1ccc(O)cc1)NC(=O)[C@H](CCC(=O)O)NC(=O)[C@@H](NC(=O)[C@H](Cc1ccccc1)NC(=O)[C@H](C)NC(=O)C(C)(C)NC(=O)[C@H](CCC(N)=O)NC(=O)[C@H](C)NC(=O)[C@H](CCCCNC(=O)COCCOCCNC(=O)COCCOCCNC(=O)CC[C@H](NC(=O)CCCCCCCCCCCCCCCCCCC(=O)O)C(=O)O)NC(=O)[C@H](CO)NC(=O)[C@H](CC(=O)O)NC(=O)[C@H](CC(C)C)NC(=O)[C@](C)(CC(C)C)NC(=O)[C@@H](NC(=O)[C@H](CO)NC(=O)[C@H](Cc1ccc(O)cc1)NC(=O)[C@H](CC(=O)O)NC(=O)[C@H](CO)NC(=O)[C@@H](NC(=O)[C@H](Cc1ccccc1)NC(=O)[C@@H](NC(=O)CNC(=O)[C@H](CCC(=O)O)NC(=O)C(C)(C)NC(=O)[C@@H](N)Cc1ccc(O)cc1)[C@@H](C)O)[C@@H](C)O)[C@@H](C)CC)[C@@H](C)CC)C(=O)N[C@@H](CCC(=O)O)C(=O)NCC(=O)NCC(=O)N1CCC[C@H]1C(=O)N[C@@H](CO)C(=O)N[C@@H](CO)C(=O)NCC(=O)N[C@@H](C)C(=O)N1CCC[C@H]1C(=O)N1CCC[C@H]1C(=O)N1CCC[C@H]1C(=O)N[C@@H](CO)C(N)=O [Example 52] (H-Y[Aib]EGTFTSDYSI[αMeL]LDSK([AEEA-AEEA-γGlu-C20 diacid])AQ[Aib]AFIEYLIEGGPSSGAPPPS-NH2)	> 1100 nM	0.0342 nM	0.132 nM	0.0997 nM	5.81 nM
CC[C@H](C)[C@H](NC(=O)[C@H](CC(C)C)NC(=O)[C@H](Cc1ccc(O)cc1)NC(=O)[C@H](CCC(=O)O)NC(=O)[C@@H](NC(=O)[C@H](Cc1ccccc1)NC(=O)[C@H](C)NC(=O)C(C)(C)NC(=O)[C@H](CCC(N)=O)NC(=O)[C@H](C)NC(=O)[C@H](CCCCNC(=O)COCCOCCNC(=O)COCCOCCNC(=O)CC[C@H](NC(=O)CCCCCCCCCCCCCCCCCCC(=O)O)C(=O)O)NC(=O)[C@H](CCCCN)NC(=O)[C@H](CC(=O)O)NC(=O)[C@H](CC(C)C)NC(=O)[C@](C)(CC(C)C)NC(=O)[C@@H](NC(=O)[C@H](CO)NC(=O)[C@H](Cc1ccc(O)cc1)NC(=O)[C@H](CC(=O)O)NC(=O)[C@H](CO)NC(=O)[C@@H](NC(=O)[C@H](Cc1ccccc1)NC(=O)[C@@H](NC(=O)CNC(=O)[C@H](CCC(=O)O)NC(=O)C(C)(C)NC(=O)[C@@H](N)Cc1c[nH]cn1)[C@@H](C)O)[C@@H](C)O)[C@@H](C)CC)[C@@H](C)CC)C(=O)N[C@@H](CCC(=O)O)C(=O)NCC(=O)NCC(=O)N1CCC[C@H]1C(=O)N[C@@H](CO)C(=O)N[C@@H](CO)C(=O)NCC(=O)N[C@@H](C)C(=O)N1CCC[C@H]1C(=O)N1CCC[C@H]1C(=O)N1CCC[C@H]1C(=O)N[C@@H](CO)C(N)=O [Example 53] (H-H[Aib]EGTFTSDYSI[αMeL]LDKK([AEEA-AEEA-γGlu-C20 diacid])AQ[Aib]AFIEYLIEGGPSSGAPPPS-NH2; N-terminus assumed)	216 nM	0.188 nM	0.0339 nM	0.628 nM	1.23 nM
CC[C@H](C)[C@H](NC(=O)[C@H](CC(C)C)NC(=O)[C@H](Cc1ccc(O)cc1)NC(=O)[C@H](CCC(=O)O)NC(=O)[C@@H](NC(=O)[C@H](Cc1ccccc1)NC(=O)[C@H](C)NC(=O)[C@H](Cc1c[nH]cn1)NC(=O)[C@H](CCC(N)=O)NC(=O)[C@H](C)NC(=O)[C@H](CCCCNC(=O)COCCOCCNC(=O)COCCOCCNC(=O)CC[C@H](NC(=O)CCCCCCCCCCCCCCCCCCC(=O)O)C(=O)O)NC(=O)[C@H](CCCCN)NC(=O)[C@H](CC(=O)O)NC(=O)[C@H](CC(C)C)NC(=O)[C@](C)(CC(C)C)NC(=O)[C@@H](NC(=O)[C@H](CO)NC(=O)[C@H](Cc1ccc(O)cc1)NC(=O)[C@H](CC(=O)O)NC(=O)[C@H](CO)NC(=O)[C@@H](NC(=O)[C@H](Cc1ccccc1)NC(=O)[C@@H](NC(=O)CNC(=O)[C@H](CCC(=O)O)NC(=O)C(C)(C)NC(=O)[C@@H](N)Cc1c[nH]cn1)[C@@H](C)O)[C@@H](C)O)[C@@H](C)CC)[C@@H](C)CC)C(=O)N[C@@H](CCC(=O)O)C(=O)NCC(=O)NCC(=O)N1CCC[C@H]1C(=O)N[C@@H](CO)C(=O)N[C@@H](CO)C(=O)NCC(=O)N[C@@H](C)C(=O)N1CCC[C@H]1C(=O)N1CCC[C@H]1C(=O)N1CCC[C@H]1C(=O)N[C@@H](CO)C(N)=O [Example 54] (H-H[Aib]EGTFTSDYSI[αMeL]LDKK([AEEA-AEEA-γGlu-C20 diacid])AQHAFIEYLIEGGPSSGAPPPS-NH2)	333 nM	0.965 nM	0.0242 nM	1.57 nM	1.66 nM
CC[C@H](C)[C@H](NC(=O)[C@H](CC(C)C)NC(=O)[C@H](Cc1ccc(O)cc1)NC(=O)[C@H](CCC(=O)O)NC(=O)[C@@H](NC(=O)[C@H](Cc1ccccc1)NC(=O)[C@H](C)NC(=O)[C@H](Cc1c[nH]cn1)NC(=O)[C@H](CCC(N)=O)NC(=O)[C@H](C)NC(=O)[C@H](CCCCNC(=O)COCCOCCNC(=O)COCCOCCNC(=O)CC[C@H](NC(=O)CCCCCCCCCCCCCCCCCCC(=O)O)C(=O)O)NC(=O)[C@H](CCC(=O)O)NC(=O)[C@H](CC(=O)O)NC(=O)[C@H](CC(C)C)NC(=O)[C@](C)(CC(C)C)NC(=O)[C@@H](NC(=O)[C@H](CO)NC(=O)[C@H](Cc1ccc(O)cc1)NC(=O)[C@H](CC(=O)O)NC(=O)[C@H](CO)NC(=O)[C@@H](NC(=O)[C@H](Cc1ccccc1)NC(=O)[C@@H](NC(=O)CNC(=O)[C@H](CCC(=O)O)NC(=O)C(C)(C)NC(=O)[C@@H](N)Cc1c[nH]cn1)[C@@H](C)O)[C@@H](C)O)[C@@H](C)CC)[C@@H](C)CC)C(=O)N[C@@H](CCC(=O)O)C(=O)NCC(=O)NCC(=O)N1CCC[C@H]1C(=O)N[C@@H](CO)C(=O)N[C@@H](CO)C(=O)NCC(=O)N[C@@H](C)C(=O)N1CCC[C@H]1C(=O)N1CCC[C@H]1C(=O)N1CCC[C@H]1C(=O)N[C@@H](CO)C(N)=O [Example 55] (H-H[Aib]EGTFTSDYSI[αMeL]LDEK([AEEA-AEEA-γGlu-C20 diacid])AQHAFIEYLIEGGPSSGAPPPS-NH2)	> 1100 nM	6.24 nM	0.0286 nM	5.45 nM	7.29 nM
